Our source for the IC50 values is US20030187007A1, “Inhibitors of protein kinase for the treatment of disease” (priority 2001, published 2003).

Holding throughout (type): biochemical
One test deals with CDK5 complexed with p25 (Homo sapiens, UniProt Q00535). Put plainly: Cyclin dependent kinase activity assay, phosphorylation of synthetic peptide PKTPKKAKKLRRR
As to conditions: CDK5 complexed with p25, 0.1 mM ATP; read-out: CDK 5 Activity*. The method, boiled down:
(§1)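 Radiometric filter-binding assay: 0.1 mM ATP plus ³³P-γ-ATP, 0.1 mM peptide, 1 mM DTT, 10 mM MgCl2 in 100 mM HEPES pH 7.4, with enzyme complex at 0.3–0.4 U/mL. Incubated 2 h at 30 °C; peptide captured on P81 phosphocellulose, washed with 0.5% phosphoric acid and counted by scintillation.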

Test [1] concerns the target CDK2 complexed with cyclin A (Homo sapiens, UniProt P24941). Described as above. As to conditions: 0.1 mM ATP, read-out: CDK 2 Activity*. The method, boiled down:
as §1

For another test, the target named is KDR (Homo sapiens, UniProt P35968). The test is described as follows: Enzyme assay for  (KDR), IC50 determination. As to conditions: 50 nM KDR, 500 μM ATP. How it is done: Enzyme assays for IC50 determinations were performed in 96-well titer plates, in a total reaction volume of 50 μL. Each reaction contained 1.5 μL of appropriate dilutions of inhibitor, 50 mM Hepes, pH 7.4, 1 mM DTT, 10 mM magnesium chloride, 2 mM phospho-poly(E4Y) (Sigma Chemical Company), 500 μM unlabeled ATP, 0.0025 μM [^33P]ATP (Amersham Pharmacia Biotech), and 50 nM KDR. All components except KDR were added to the wells, and the reaction was started by the addition of the enzyme. The reactions were mixed and incubated at room temperature for 1 hr, after which the reactions were quenched by the addition of 50 μL of 8% phosphoric acid. At this point, 90 μL aliquots of the samples were applied to positively charged DEAE 96-well filter plates (Millipore Corporation MADENOB10). The plates were incubated for 30 min at room temperature. The samples were aspirated and the wells were washed 3 times with 200 μL of 0.5% phosphoric acid. To each well, 50 μL of scintillation cocktail was added and counted for 60 sec in a TopCount microplate scintillation counter (Packard Instrument Company). The concentration of a compound that inhibited the activity of KDR by 50% (IC50) was determined based its inhibition curve.

Structures can show the parent of a compound that is named as a salt.

Sequence of KDR (P35968 20-1356): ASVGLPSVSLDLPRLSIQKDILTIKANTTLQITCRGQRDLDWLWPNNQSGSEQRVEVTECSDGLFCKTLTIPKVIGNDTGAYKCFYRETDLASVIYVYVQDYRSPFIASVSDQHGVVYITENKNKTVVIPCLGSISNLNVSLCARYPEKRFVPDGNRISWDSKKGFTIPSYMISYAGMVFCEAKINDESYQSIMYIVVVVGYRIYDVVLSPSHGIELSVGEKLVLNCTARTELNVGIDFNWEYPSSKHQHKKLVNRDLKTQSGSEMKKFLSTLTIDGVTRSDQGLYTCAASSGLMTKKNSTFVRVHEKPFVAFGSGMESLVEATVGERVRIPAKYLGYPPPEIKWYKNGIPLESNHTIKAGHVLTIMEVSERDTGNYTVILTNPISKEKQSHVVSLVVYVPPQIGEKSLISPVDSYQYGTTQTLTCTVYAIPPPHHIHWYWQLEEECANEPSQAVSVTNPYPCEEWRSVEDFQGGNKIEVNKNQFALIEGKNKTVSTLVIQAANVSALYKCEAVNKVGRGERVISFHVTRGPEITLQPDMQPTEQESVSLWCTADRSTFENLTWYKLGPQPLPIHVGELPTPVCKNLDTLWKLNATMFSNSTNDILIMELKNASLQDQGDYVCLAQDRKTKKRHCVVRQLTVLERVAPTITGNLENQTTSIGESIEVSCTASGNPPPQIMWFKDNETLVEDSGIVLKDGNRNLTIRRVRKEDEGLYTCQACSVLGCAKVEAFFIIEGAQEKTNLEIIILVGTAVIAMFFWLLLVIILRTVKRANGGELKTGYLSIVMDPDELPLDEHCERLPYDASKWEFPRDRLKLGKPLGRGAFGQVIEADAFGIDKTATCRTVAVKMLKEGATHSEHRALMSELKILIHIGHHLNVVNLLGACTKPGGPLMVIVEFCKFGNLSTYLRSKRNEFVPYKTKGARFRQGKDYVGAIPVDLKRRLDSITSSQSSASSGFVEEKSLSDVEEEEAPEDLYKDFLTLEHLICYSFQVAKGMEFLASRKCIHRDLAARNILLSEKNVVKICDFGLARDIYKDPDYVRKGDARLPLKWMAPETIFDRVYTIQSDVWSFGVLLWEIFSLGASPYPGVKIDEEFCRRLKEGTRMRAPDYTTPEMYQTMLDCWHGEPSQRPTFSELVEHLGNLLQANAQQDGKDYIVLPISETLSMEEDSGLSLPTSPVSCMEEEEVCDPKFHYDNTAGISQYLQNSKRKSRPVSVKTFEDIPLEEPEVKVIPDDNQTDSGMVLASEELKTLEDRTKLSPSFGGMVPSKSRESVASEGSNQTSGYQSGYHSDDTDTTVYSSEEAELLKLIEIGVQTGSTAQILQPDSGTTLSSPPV
Sequence of CDK5 complexed with p25 (Q00535 whole entry): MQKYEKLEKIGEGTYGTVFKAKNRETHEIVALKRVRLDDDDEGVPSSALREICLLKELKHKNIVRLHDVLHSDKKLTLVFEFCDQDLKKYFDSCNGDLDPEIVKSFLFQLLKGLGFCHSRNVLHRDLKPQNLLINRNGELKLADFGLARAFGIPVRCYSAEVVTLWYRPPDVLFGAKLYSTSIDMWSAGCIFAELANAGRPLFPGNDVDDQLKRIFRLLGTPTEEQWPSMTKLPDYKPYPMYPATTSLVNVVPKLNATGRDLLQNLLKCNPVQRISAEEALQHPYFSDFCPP
Sequence of CDK5 complexed with p25 (Q15078 99-307 partner limits assumed): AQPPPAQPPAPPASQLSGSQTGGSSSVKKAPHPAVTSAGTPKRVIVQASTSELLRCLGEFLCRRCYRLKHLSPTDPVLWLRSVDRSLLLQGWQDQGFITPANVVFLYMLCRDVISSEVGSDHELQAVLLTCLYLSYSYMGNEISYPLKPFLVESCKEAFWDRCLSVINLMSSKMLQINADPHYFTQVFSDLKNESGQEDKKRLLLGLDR

As for `Nc1nc(N[C@H](CO)Cc2ccccc2)cc(-c2cc(-c3ccc(O)cc3)ccc2O)n1` [Example 87, 3-[2-Amino-6-(1S-benzyl-2-hydroxy-ethylamino)-pyrimidin-4-yl]-biphenyl-4,4′-diol], the figures for the IC50 (on CDK5 complexed with p25; in test [1]; at KDR) were below 0.5 µM, below 0.5 µM and 1 to 20 µM, respectively.
Take `Nc1nccc(-c2cc(-c3ccc(O)cc3)ccc2O)n1` [Example 57, 3-(2-Amino-pyrimidin-4-yl)-biphenyl-4,4′-diol]: the IC50 at CDK5 complexed with p25 was below 0.5 µM; in test [1] it was below 0.5 µM; at KDR, below 1 µM.
Consider `NC(=O)N/N=C/c1cc(-c2ccc(O)c(F)c2)ccc1O` [Example 24, 5-(3-Fluoro-4-hydroxyphenyl)salicylaldehyde semicarbazone hydrochloride], for which the results for the IC50 (on CDK5 complexed with p25; in test [1]; against KDR) were below 0.5 µM, below 0.5 µM and 1 to 20 µM, respectively.
With `Nc1nccc(-c2cc(-c3ccc(C=O)o3)ccc2O)n1` [Example 59, 5-[3-(2-Amino-pyrimidin-4-yl)-4-hydroxy-phenyl]-furan-2-carbaldehyde], the IC50 was 0.5 to 2 µM on CDK5 complexed with p25, 0.5 to 2 µM in test [1] and below 1 µM against KDR.
On to `Nc1nc(-c2cccc(CO)c2)cc(-c2cc(-c3ccc(O)cc3)ccc2O)n1` [Example 84, 3-[2-Amino-6-(3-hydroxymethyl-phenyl)-pyrimidin-4-yl]-biphenyl-4,4′-diol], for which the IC50 at CDK5 complexed with p25 was below 0.5 µM; in test [1], below 0.5 µM; against KDR it was below 1 µM.
